Test results from patent US20130331326A1, “METHOD OF INDUCING HEMATOPOIETIC RECONSTRUCTION” (DUKE UNIVERSITY, priority 2011, published 2013).
Entries after “also recorded” stand apart in the source; their conditions may differ.

Legend:
MAPK = assay: Phosphorylation of MAPK in irradiated BM KSL cells; assay type: cell-based, mouse; conditions: EGF treatment of irradiated BM KSL cells in culture; data not shown
Excerpt: EGFR signaling can activate multiple signaling cascades, including the MAPK and PI3k/Akt signaling pathways (Sordella et al, Science 305:1163-1167 (2004), Yang et al, Nature 480:118-122 (2011), Hynes and Lane, Nat. Rev. Cancer 5:341-354 (2005), Wheeler et al, Nat. Rev. Clin. Oncol. 7:493-507 (2010)). […] A further examination was made of whether inhibition of Akt signaling could negate EGF-mediated induction of BM stem/progenitor cell cycling following irradiation.

BM KSL cells [1] = assay: Culture of 300 cGy-irradiated BM KSL cells with BM ECs or TSF cytokines; CFC and CFU-S12 recovery; assay type: cell-based, mouse
Protocol: BM cells were collected into PBS (Cellgro, Manassas, Va.) with 10% fetal bovine serum (Hyclone, Logan, Utah) and 1% penicillin/streptomycin (GIBCO, Grand Island, N.Y.). Viable BM cells were quantified using Trypan Blue Stain (Lonza, Basel, Switzerland) to exclude apoptotic and dead cells. Cells were then incubated with anti-c-kit, anti-Sca-1, anti-lineage cocktail, anti-CD41, anti-CD48, and anti-CD150 antibodies (Biolegend and eBiosciences, San Diego, Calif.; BD, San Jose, Calif.) to measure ckit^+sca-1^+lin^− (KSL) progenitor cells or CD150′CD41^−CD48^−KSL (SLAM/KSL) as previously described (Kiel et al, Cell 121:1109-1121 (2005)). Colony forming cells (CFCs) and CFU-S12 assays were also performed to measure functional hematopoietic stem/progenitor cell content. For CFCs, either whole BM or cultured lineage−cells, or KSL cells were plated onto methylcellulose (StemCell Technologies, Vancouver, BC, Canada), and colonies were scored on day 14. 1×10^5 BM or 2×10^5 cells were collected from donor mice and injected via tail vein into recipient C57B16 mice that had been given 950 cGy TBI. At day +12 post-injection, spleens from recipient mice were harvested and stained with Bouin's fixative solution (Ricca Chemical Company, Arlington, Tex.), and colonies were counted as previously described (Till and MeRadiat. Res. 14:213-222 (1961)). Complete blood counts were performed on a HemaVet 950 (Drew Scientific, Dallas, Tex.). […]

C57B16 mice = assay: Survival of C57B16 mice after 700 cGy TBI; assay type: in vivo, mouse; conditions: 0.5 ug/G EGF daily x 7 days from +2 hours, saline controls 57%
BM 34-KSL cells = assay: Competitive transplantation of the progeny of cultured BM 34-KSL cells; assay type: cell-based, mouse; conditions: progeny of 300 cGy-irradiated, EGF-treated BM 34-KSL cells; 8 weeks post-transplant
DNA-PK = assay: Phosphorylation of DNA-PK in irradiated BM lin- cells; assay type: cell-based, mouse; conditions: 300 cGy BM lin- cells, EGF 20 ng/ml, vs cytokines alone
Protocol: The phosphorylation of the T2647 domain of DNA-PK was measured using immunofluorescence and flow cytometric analysis. […] Cells were separated onto a glass slide, fixed with 4% paraformaldehyde and permeabilized with 0.3% Triton-X. Cells were stained with rabbit polyclonal DNA-PK or rabbit IgG (Abeam, Cambridge, Mass.) and donkey anti-rabbit Alexafluor 488 antibody and counterstained with Hoechst 33342 (Life Technologies, Grand Island, N.Y.).

EGFR = assay: Phosphorylation of EGFR-Y845 in BM KSL cells in culture; assay type: cell-based, mouse; conditions: wild type BM KSL cells treated with EGF in vitro (20 ng/mL, 15 minutes)
BM KSL cells [2] = assay: Annexin V apoptosis assay of irradiated BM KSL cells in culture; assay type: cell-based, mouse; conditions: 72 hours, vs cytokines alone
Protocol: (§1) Cell apoptosis and necrosis were analyzed by flow cytometry according to manufacturer's protocols with Annexin V-FITC and 7-AAD staining (BD, San Jose, Calif.). […] Cells were fixed and permeabilized with Fix Buffer I and Perm Buffer III (BD), and then stained with mouse anti-phospho-AKT-S473 PE (BD) or isotype control. Cell cycle analysis was performed by flow cytometric analysis modified from previous reports (Jordan et al, Exp. Hematol. 24:1347-1355 (1996), Chute et al, Hum. Gene Ther. 11:2515-2528 (2000), Sungartz et al, Blood 119:1308-1309 (2012)). Briefly, cells were fixed and permeabilized with 0.25% Saponin (Calbiochem, La Jolla, Calif.), 2.5% paraformaldehyde, 2% FBS in 1×PBS, and then labeled with Ki67-FITC and 7-AAD (BD). BM lin^− cells from VavCre;EGFR^+/+ or VavCre;EGER^fl/fl were cultured with TSF or TSF+10 μM erlotinib, or TSF following 300 cGy for 72 hours, and then collected for total cell counts and CFCs analysis.

AKT-S473 = assay: Phosphorylation of AKT-S473 in irradiated BM KSL cells; assay type: cell-based, mouse; conditions: EGF treatment of irradiated BM KSL cells in culture, within 15 minutes, vs TSF alone
Protocol: as §1

[3] = 20 ng/mL EGF added to non-contact FL/+ EC cultures of 300 cGy-irradiated BM KSL cells, vs FL/+ ECs alone
[4] = EGF added to irradiated BM KSL cells cultured with cytokines (TSF), day 7, vs cytokines alone

EGF: epidermal growth factor; recombinant EGF (R&D Systems)
phosphorylation of MAPK (MAPK): did not alter the phosphorylation of MAPK
increase in CFCs recovered at day 7 (BM KSL cells [1]; [3]): 2.2 fold
increase in CFU-S12 recovered at day 7 (BM KSL cells [1]; [3]): 2.6 fold
recovery of CFCs in culture (BM KSL cells [1]; 300 cGy BM KSL cells from Tie2Cre;Bak1-/-;BaxFl/- mice, TSF + 20 ng/ml EGF, 72 hours, vs cytokines alone): increased CFCs; also recorded: increase in recovery of CFCs
increase in CFCs (BM KSL cells [1]; [4]): 3 fold
increase in CFU-S12 (BM KSL cells [1]; [4]): 4 fold
increase in BM CFC recovery (BM KSL cells [1]; EGF treatment, 72 hours following radiation exposure, vs TSF alone): 3 fold
regeneration of BM stem and progenitor cells (CFC, CFUS12) (BM KSL cells [1]; Example 1, 300 cGy KSL cells, 7 days with BaxFl+ endothelial cells with and without EGF): induced regeneration of BM stem and progenitor cells
mice alive and well through day +30 (C57B16 mice): 93%
donor hematopoietic cell repopulation, higher vs cytokine cultures alone (BM 34-KSL cells): 3 fold
phospho-DNA-PK levels by immunofluorescence staining (DNA-PK; 15 minutes): increased phospho-DNA-PK; also recorded: significant increase
phospho-DNA-PK levels by FACS analysis (DNA-PK; 1 hour): increased phospho-DNA-PK; also recorded: significant increase
EGFR signaling as measured by EGFR phosphorylation (EGFR): induced EGFR signaling
decreased Annexin+ KSL cells (BM KSL cells [2]; C57B16 BM KSL, 300 cGy, cytokines plus 20 ng/ml EGF): 2 fold
percentage of Annexin+ cells (BM KSL cells [2]; irradiated BM KSL cells from Tie2Cre;Bak1-/-;BaxFl/- mice, EGF): further decreased
increase in Akt phosphorylation (AKT-S473): 50%
